Measured values from paper PMC10191551, “Safety, Tolerability, and Pharmacokinetics of Oral Ferric Maltol in Children With Iron Deficiency: Phase 1 Study” (JPGN Reports, 2021).

Settings: in vivo
Method: The primary objectives were to assess iron uptake and ferric maltol pharmacokinetics. Serum iron and TSAT provided measures of iron uptake. In adults, dissociated maltol undergoes rapid glucuronidation and is cleared in urine as maltol glucuronide (36); therefore, in this study, plasma maltol glucuronide was measured to confirm the rate of clearance in children.
Sparse pharmacokinetic blood sampling was performed at baseline before the morning dose and at prespecified collection windows 0.5–6 hours after the morning dose on days 1 and 10, giving 3 to 6 samples per time point. The post-dose pharmacokinetic sample collection windows were 0.5–<1, 1–<2, 2–<3, 3–<4, and 4–<6 hours, with patients assigned to post-dose pharmacokinetic blood sampling schedules in sequential order at randomization. Individuals had the same schedule on days 1 and 10. Plasma maltol glucuronide and serum iron and TSAT were measured at each time point to calculate standard pharmacokinetic parameters.
The observed values for plasma maltol glucuronide and serum iron and TSAT were summarized by dose group and visit for the ITT population, as were changes from baseline in serum iron and TSAT. The ITT population was also used in the population pharmacokinetic analysis. […]

SMILES: Cc1occc(=O)c1O[C@@H]1O[C@H](C(=O)O)[C@@H](O)[C@H](O)[C@H]1O [maltol glucuronide]
- Cmax and AUC of maltol glucuronide: dose dependence: dose-dependent
